This note sets out measurements from patent US20250205300A1, “PLANT-BASED COMPOSITIONS AND METHODS FOR HORMONE SIGNALING, BLOOD GLUCOSE CONTROL, APPETITE CONTROL, AND WEIGHT MANAGEMENT” (Alpine Biotech, LLC, priority 2023, published 2025).

Assay [1] concerns preclinical diabetes model. Kind of assay: Plasma GLP-1 levels in preclinical diabetes model (FIG. 2). The format is in vivo.
The next assay has as its system Human NCI-H716 cells. In words: Secretion of GLP-1 in Human NCI-H716 cells (FIG. 1). The format is cell-based. The source says: FIG. 1 is a graph illustrating the effects of compositions in Human NCI-H716 cells according to an implementation.

Consider `COc1ccc2cc3[n+](cc2c1OC)CCc1cc2c(cc1-3)OCO2` [Berberine], for which, in assay [1], the “plasma GLP-1 levels” value was “modulate plasmas GLP-1 levels”. In the assay with Human NCI-H716 cells, the “secretion of GLP-1” value is “modulate the secretion of GLP-1 to various degrees”.

For `O=C(O[C@@H]1Cc2c(O)cc(O)cc2O[C@@H]1c1cc(O)c(O)c(O)c1)c1cc(O)c(O)c(O)c1` [epigallocatechin gallate], the “secretion of GLP-1” value in the assay with Human NCI-H716 cells is “modulate the secretion of GLP-1 to various degrees”.

For `CC/C=C\C/C=C\C/C=C\CCCCCCCC(=O)O` [α-linolenic acid], the “plasma GLP-1 levels” value in assay [1] is “modulate plasmas GLP-1 levels”. In addition, the “secretion of GLP-1” value with Human NCI-H716 cells is “modulate the secretion of GLP-1 to various degrees”.
